In article PMC8587151, “Dibenzofuran Derivatives Inspired from Cercosporamide as Dual Inhibitors of Pim and CLK1 Kinases” (Molecules, 2021):
“And” between values parts separate entries of the source, which are not always exact repeats. Equal entries are not always repeated. Where two headings read alike, the source gives them in different places.

Assays:
[1] = molecular target: T1, HsPim-1 (Homo sapiens, UniProt P11309); assay: Kinase assay, luminescent ADP-Glo, 10 µM ATP; assay type: biochemical; conditions: ADP-Glo, 10 µM ATP
T1 construct: made in house; host or cells: Escherichia coli BL21 DE3 pLysS
Protocol: (§1) The synthesized compounds were tested using a luminescence-based assay against a panel of nine kinases: Pim-1, Pim-2, CDK5/p25, CDK9/CyclinT, Haspin, CK1ε, and GSK3β (from human); DYRK1A (from Rattus norvegicus); and CLK1 (from Mus musculus).
(§2) Kinase enzymatic activities were assayed with 10 µM ATP in 384-well plates using the luminescent ADP-Glo^TM assay (Promega, Madison, WI, USA) according to the recommendations of the manufacturer (see [56] for details on this method). The transmitted signal was measured using the Envision (PerkinElmer, Waltham, MA, USA) microplate luminometer and expressed in relative light unit (RLU). In order to determine the half maximal inhibitory concentration (IC50), the assays were performed in duplicate in the absence or presence of increasing doses of the tested compounds. GraphPad Prism6 software (GraphPad Software, San Diego, CA, USA) was used to fit dose–response curves and to determine the IC50 values. Kinase activities are expressed in % of maximal activity, i.e., measured in the absence of inhibitor. Peptide substrates were obtained from Proteogenix (Schiltigheim, France).
(§3) For kinases expressed in bacteria, the Escherichia coli BL21 DE3 pLysS strain (Invitrogen, ThermoFisher Scientific, Waltham, MA, USA) was transformed with pGEX-2T-1 (Sigma-Aldrich, St. Louis, MO, USA) containing the coding region of the corresponding kinase. For kinases expressed in Sf9 insect cells, the coding region of the corresponding kinase was cloned in pFastBac^TM vector. Purification of the recombinant kinases was performed following the protocol “Bac-to-Bac® Baculovirus Expression System” provided by the manufacturer (Invitrogen, ThermoFisher Scientific, Waltham, MA, USA).
(§4) To validate the kinase assay, model inhibitors were used for each tested enzyme: Staurosporine from Streptomyces sp. (#S5921, purity ≥ 95%, Sigma-Aldrich) for HsCK1ε; Indirubin-30-oxime (#I0404, purity ≥ 98%, Sigma-Aldrich) for HsGSK-3β, HsPim-1 and 2, human cyclin-dependent kinases, RnDYRK1A and MmCLK1; CHR-6494 (#SML0648, purity ≥ 98%, Sigma-Aldrich) for Haspin.

[2] = test system: HeLa cells; assay: MTT cytotoxicity assay; assay type: cell-based; conditions: Homo sapiens, 72 h
Description: (§5) Various types of hematological malignancies were selected for in vitro testing: the human acute myeloid leukemia (AML) cell line MV4-11, and the human chronic myeloid leukemia (CML) cell lines KU812 and K562. Indeed, Pim kinases are overexpressed in a wide range of hematopoietic malignancies. Solid tumors were also included in the panel of tested cell lines: MCF-7 (human breast adenocarcinoma), HT-29 (human colon adenocarcinoma), and HeLa (human cervical cancer) cells. Cytotoxic effects were evaluated using an MTT assay, and living cells were also counted with the trypan blue dye exclusion method for MV4-11, KU812, and K562 cells.
(§6) The cancer cell lines MCF-7, HT-29, and HeLa were obtained from Cell Bank of Rio de Janeiro, Brazil, and were grown in RPMI-1640 medium and L929 cells were grown in Dulbecco’s Modified Eagle’s Medium (DMEM). Both media were supplemented with fetal bovine serum (FBS) (10% of the final concentration) followed by treatment with penicillin and streptomycin as antibiotics (1% of the final concentration). The crude was incubated in the presence of CO2 atmosphere (5%) for 24 h with the temperature monitored and maintained at 37 °C.
(§7) MCF-7, HT-29, HeLa, and L929 cells (3×10^5 cells/mL) were plated in 96-well plates and incubated in the presence of CO2 atmosphere (5%) for 24 h at 37 °C. […] Then, 25 μL of MTT (5 mg/mL in PBS) were added to each well and the plates were left for another 3 h in the incubator at 37 °C and at the end of this period, the supernatant was aspirated. To perform the reading, 100 μL of dimethylsulfoxide (DMSO) were added in each well for the dissolution of the formazan crystals. The amount of formazan was measured by reading the plate at 560 nm absorbance. […] Each sample was tested in triplicate in two independent experiments.

[3] = test system: MCF-7 cells; assay: MTT cytotoxicity assay; assay type: cell-based; conditions: Homo sapiens, MCF7, 72 h
Description: as §5, §6, §7

[4] = test system: K562 cells; assay: MTT cell proliferation assay; assay type: cell-based; conditions: Homo sapiens, 48 h, mean ± SEM
Description: as §5
(§8) MV4-11, K562, and KU812 cell lines were obtained from the Deutshe Sammlung von Mikroorganismens und Zellkulturen (DSMZ) and maintained according to the supplier’s recommendations. All cell lines were cultured in RPMI, with 10% fetal bovine serum, 1% glutamine, and 1% penicillin/ streptomycin at 37 °C and 5% CO2.
(§9) MV4-11, K562, and KU812 cells’ viability was studied using a MTT cell proliferation assay.
(§10) MV4-11, K562, and KU812 cells were incubated with 10 μL of MTT working solution (5 g/L of methylthiazolyldiphenyl-tetrazolium bromide from Sigma Aldrich, Lyon, France) for 4 h. Cells were then lysed overnight at 37 °C with 100 μL of 10% SDS and 0.003% HCl. Optical density (OD) at 570 nm was measured using a spectrophotometer CLARIOstar® (BMG Labtech, Offenburg, Germany). Living cells were also counted with the trypan blue dye exclusion method. […] Data were collected from at least three independent experiments and the values reported are means ± standard errors of the mean (SEM).

[5] = test system: KU812 cells; assay: MTT cell proliferation assay; assay type: cell-based; conditions: Homo sapiens, 48 h, mean ± SEM
Description: as §5, §8, §9, §10

[6] = test system: MV4-11 cells; assay: MTT cell proliferation assay; assay type: cell-based, human; conditions: mean ± SEM; for IC50: Homo sapiens, MV4-11, 48 h
Description: as §5, §8, §9, §10

[7] = test system: L929 cells; assay: MTT assay, in vitro toxicity on normal cells; assay type: cell-based; conditions: 72 h, normal mouse fibroblasts
Description: as §5, §6, §7

[8] = molecular target: T2, HsCDK9/CyclinT (Homo sapiens, UniProt P50750); assay: Kinase assay, luminescent ADP-Glo, 10 µM ATP; assay type: biochemical; conditions: duplicate, read-out: Kinase Enzymatic IC50 CDK9/CyclinT
T2 construct: made in house; host or cells: Sf9 insect cells (baculovirus, pFastBac)
Protocol: as §1, §2, §3, §4

[9] = molecular target: T3, HsCDK5/p25 (Homo sapiens, UniProt Q00535); assay: Kinase assay, luminescent ADP-Glo, 10 µM ATP; assay type: biochemical; conditions: duplicate, read-out: Kinase Enzymatic IC50 CDK5/p25
T3 construct: made in house; host or cells: Escherichia coli BL21 DE3 pLysS
Protocol: as §1, §2, §3, §4

[10] = molecular target: T4, MmCLK1 (Mus musculus, UniProt P22518); assay: Kinase assay, luminescent ADP-Glo, 10 µM ATP; assay type: biochemical; conditions: ADP-Glo, 10 µM ATP, duplicate; read-out: Kinase Enzymatic IC50 CLK1
T4 construct: made in house; host or cells: Escherichia coli BL21 DE3 pLysS
Protocol: as §1, §2, §3, §4

[11] = molecular target: T5, HsPim-2 (Homo sapiens, UniProt Q9P1W9); assay: Kinase assay, luminescent ADP-Glo, 10 µM ATP; assay type: biochemical; conditions: mean of n ≥ 3, read-out: IC50 Pim-2
T5 construct: made in house; host or cells: Escherichia coli BL21 DE3 pLysS
Protocol: as §1, §2, §3, §4

[12] = Table 1, duplicate, read-out: Kinase Enzymatic IC50 Pim-1
[13] = Table 2, mean of n ≥ 3, read-out: IC50 Pim-1

T1 sequence (P11309 whole entry): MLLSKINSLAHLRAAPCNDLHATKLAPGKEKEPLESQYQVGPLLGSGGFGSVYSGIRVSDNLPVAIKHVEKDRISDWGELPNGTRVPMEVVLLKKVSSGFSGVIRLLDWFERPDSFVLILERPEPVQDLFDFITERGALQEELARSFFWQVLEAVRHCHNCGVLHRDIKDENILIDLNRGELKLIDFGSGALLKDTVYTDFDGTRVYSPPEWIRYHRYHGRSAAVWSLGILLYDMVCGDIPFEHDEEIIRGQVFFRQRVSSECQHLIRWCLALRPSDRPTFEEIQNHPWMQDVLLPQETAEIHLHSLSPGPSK
T5 sequence (Q9P1W9 whole entry): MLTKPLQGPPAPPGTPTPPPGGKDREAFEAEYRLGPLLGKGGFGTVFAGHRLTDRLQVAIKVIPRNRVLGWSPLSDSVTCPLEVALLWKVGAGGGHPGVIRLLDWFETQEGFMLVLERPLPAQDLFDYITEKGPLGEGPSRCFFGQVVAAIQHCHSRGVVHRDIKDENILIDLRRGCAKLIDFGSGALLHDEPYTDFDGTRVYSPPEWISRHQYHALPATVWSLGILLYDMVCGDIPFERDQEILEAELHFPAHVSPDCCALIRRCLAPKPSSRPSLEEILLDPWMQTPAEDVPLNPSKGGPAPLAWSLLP
T4 sequence (P22518 whole entry): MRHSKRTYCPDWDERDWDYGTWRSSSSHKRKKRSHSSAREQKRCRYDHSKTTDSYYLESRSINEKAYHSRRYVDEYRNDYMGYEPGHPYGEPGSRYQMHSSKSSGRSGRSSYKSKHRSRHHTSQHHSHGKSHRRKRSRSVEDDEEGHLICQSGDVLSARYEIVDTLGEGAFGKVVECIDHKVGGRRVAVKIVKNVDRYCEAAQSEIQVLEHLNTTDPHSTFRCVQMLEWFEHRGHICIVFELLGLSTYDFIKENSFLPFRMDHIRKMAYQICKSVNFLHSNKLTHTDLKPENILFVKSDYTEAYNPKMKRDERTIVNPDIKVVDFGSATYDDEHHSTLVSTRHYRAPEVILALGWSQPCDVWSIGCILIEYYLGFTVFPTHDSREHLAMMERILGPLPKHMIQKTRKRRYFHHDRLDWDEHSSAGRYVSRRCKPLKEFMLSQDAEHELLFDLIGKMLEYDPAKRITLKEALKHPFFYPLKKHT
T2 sequence (P50750 whole entry): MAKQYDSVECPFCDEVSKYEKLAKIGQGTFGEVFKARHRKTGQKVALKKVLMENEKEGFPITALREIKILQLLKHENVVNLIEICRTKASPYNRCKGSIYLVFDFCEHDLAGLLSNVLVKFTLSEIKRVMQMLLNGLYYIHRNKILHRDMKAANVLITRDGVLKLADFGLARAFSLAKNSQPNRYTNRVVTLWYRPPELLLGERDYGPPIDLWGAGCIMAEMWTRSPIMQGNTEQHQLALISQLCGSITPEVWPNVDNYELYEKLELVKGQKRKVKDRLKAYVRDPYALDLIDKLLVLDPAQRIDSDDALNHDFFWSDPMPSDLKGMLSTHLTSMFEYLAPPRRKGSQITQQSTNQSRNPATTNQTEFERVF
T2 sequence (O60563 whole entry partner): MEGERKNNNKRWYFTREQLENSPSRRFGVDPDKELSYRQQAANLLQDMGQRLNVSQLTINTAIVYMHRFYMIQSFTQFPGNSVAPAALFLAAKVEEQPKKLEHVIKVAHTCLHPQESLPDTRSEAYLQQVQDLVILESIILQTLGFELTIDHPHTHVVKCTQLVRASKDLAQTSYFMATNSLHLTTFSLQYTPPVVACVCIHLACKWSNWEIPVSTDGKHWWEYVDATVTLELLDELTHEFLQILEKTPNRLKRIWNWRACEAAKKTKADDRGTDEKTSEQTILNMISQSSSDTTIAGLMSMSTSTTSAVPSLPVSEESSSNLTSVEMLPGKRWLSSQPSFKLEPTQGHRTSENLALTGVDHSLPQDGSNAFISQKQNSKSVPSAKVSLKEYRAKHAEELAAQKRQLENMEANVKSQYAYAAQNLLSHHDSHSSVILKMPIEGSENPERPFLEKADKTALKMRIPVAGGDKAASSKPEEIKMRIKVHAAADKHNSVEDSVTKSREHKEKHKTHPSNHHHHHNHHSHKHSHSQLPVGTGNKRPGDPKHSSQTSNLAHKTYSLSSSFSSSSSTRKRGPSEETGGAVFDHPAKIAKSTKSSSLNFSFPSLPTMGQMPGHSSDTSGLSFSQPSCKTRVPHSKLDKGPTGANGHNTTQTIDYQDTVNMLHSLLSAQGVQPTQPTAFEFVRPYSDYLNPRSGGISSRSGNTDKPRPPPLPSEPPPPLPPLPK
T3 sequence (Q00535 whole entry): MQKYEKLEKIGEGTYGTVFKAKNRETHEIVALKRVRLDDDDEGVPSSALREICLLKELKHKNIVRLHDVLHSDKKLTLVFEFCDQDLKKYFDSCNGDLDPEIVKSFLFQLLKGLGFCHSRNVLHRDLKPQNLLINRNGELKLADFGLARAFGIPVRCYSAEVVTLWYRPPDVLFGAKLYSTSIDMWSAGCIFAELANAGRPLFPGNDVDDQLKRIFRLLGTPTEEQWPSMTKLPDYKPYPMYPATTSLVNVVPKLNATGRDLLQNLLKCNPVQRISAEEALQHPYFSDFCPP
T3 sequence (Q15078 99-307 partner limits assumed): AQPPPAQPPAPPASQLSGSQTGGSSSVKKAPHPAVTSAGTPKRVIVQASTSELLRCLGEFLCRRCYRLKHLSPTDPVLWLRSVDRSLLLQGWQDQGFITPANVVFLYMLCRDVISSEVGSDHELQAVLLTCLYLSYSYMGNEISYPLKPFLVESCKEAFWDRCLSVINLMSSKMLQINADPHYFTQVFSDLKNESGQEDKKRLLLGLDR

With `COc1cc(OC)c2c(oc3c([N+](=O)[O-])cccc32)c1C(N)=O` [Compound 14, 1,3-Dimethoxy-6-nitrodibenzo[b,d]furan-4-carboxamide] the IC50 [1, 12] was 3.21 µM and the melting point was 298 to 299 °C.
Work on `NC(=O)c1c(O)cc(O)c2c1oc1c([N+](=O)[O-])cccc12` [Compound 15, 1,3-Dihydroxy-6-nitrodibenzo[b,d]furan-4-carboxamide] yielded an IC50 [1, 12] of 0.18 µM, an IC50 [1, 13] of 0.18 µM and an IC50 [2] of 24.7 ± 6.7 µM. The IC50 [3] was > 100 µM, the IC50 [4] was > 100 µM and the IC50 [5] was 78.4 ± 2.1 µM. The melting point was > 300 °C, the IC50 [6] was 30.7 ± 1.1 µM and the IC50 [7] was 49.2 ± 1 µM.
In the case of `NC(=O)c1c(O)cc(O)c2c1oc1c(N)cccc12` [Compound 16, 6-Amino-1,3-dihydroxydibenzo[b,d]furan-4-carboxamide], the IC50 [8] is reported as > 10 µM, the IC50 [9] is reported as > 10 µM and the IC50 [10] is reported as 0.45 µM. It also gave an IC50 [11] of 0.085 µM, an IC50 [1, 12] of 0.13 µM and an IC50 [1, 13] of 0.13 µM. The IC50 [2] was 14.6 ± 7.2 µM, the IC50 [3] was > 100 µM and the IC50 [4] was > 100 µM. The IC50 [5] was > 100 µM, the IC50 [6] was 10.1 ± 0.8 µM and the IC50 [7] was > 100 µM.
Compound `NC(=O)c1c(O)cc(O)c2c1oc1ccccc12` [Compound 17, 1,3-Dihydroxydibenzo[b,d]furan-4-carboxamide] has an IC50 [10] of 0.26 µM, an IC50 [1, 12] of 0.23 µM and an IC50 [1, 13] of 0.23 µM. For the same compound, the IC50 [2] was 9.5 ± 4.1 µM, the IC50 [3] was > 100 µM and the IC50 [4] was > 100 µM. The IC50 [5] was > 100 µM, the melting point was 219 to 220 °C and the IC50 [6] was 14.3 ± 1.1 µM. For the same compound, the IC50 [7] was > 100 µM.
With `COc1cc(OC)c2c(oc3c(N)cccc32)c1C(N)=O` [Compound 18, 6-Amino-1,3-dimethoxydibenzo[b,d]furan-4-carboxamide] the IC50 [1, 12] was > 10 µM and the melting point was 293 to 294 °C.
In the case of `COc1cc(OC)c2c(oc3ccccc32)c1C(N)=O` [Compound 19, 1,3-Dimethoxydibenzo[b,d]furan-4-carboxamide], the IC50 [1, 12] is reported as > 10 µM and the melting point is reported as 296 to 297 °C.
In the case of `COc1cc2oc3c(C(N)=O)c(OC)cc(OC)c3c2cc1C(C)=O` [Compound 38, 8-Acetyl-1,3,7-trimethoxydibenzo[b,d]furan-4-carboxamide], the IC50 [1, 12] is reported as > 10 µM.
For `COc1ccc2c(c1)oc1c(C(N)=O)c(OC)cc(OC)c12` [Compound 39, 1,3,7-Trimethoxydibenzo[b,d]furan-4-carboxamide], the IC50 [1, 12] was > 10 µM and the melting point was 332 to 333 °C.
In the case of `COc1cc(OC)c2c(oc3ccc(C(C)=O)cc32)c1C(N)=O` [Compound 40, 8-Acetyl-1,3-dimethoxydibenzo[b,d]furan-4-carboxamide], the IC50 [1, 12] is reported as > 10 µM and the melting point is reported as 237 to 238 °C.
In the case of `COc1cc(OC)c2c(oc3ccc(C(F)(F)F)cc32)c1C(N)=O` [Compound 42, 1,3-Dimethoxy-8-(trifluoromethyl)dibenzo[b,d]furan-4-carboxamide], the IC50 [1, 12] is reported as > 10 µM and the melting point is reported as 250 to 251 °C.
Compound `CC(=O)c1cc2c(cc1O)oc1c(C(N)=O)c(O)cc(O)c12` [Compound 43, 8-Acetyl-1,3,7-trihydroxydibenzo[b,d]furan-4-carboxamide] has an IC50 [11] of 0.14 µM, an IC50 [1, 12] of 0.82 µM and an IC50 [1, 13] of 0.82 µM. For the same compound, the IC50 [2] was 57.1 ± 7.6 µM, the IC50 [3] was > 100 µM and the IC50 [4] was > 100 µM. The IC50 [5] was > 100 µM, the melting point was 335 to 336 °C and the IC50 [6] was 52.2 ± 1.7 µM. For the same compound, the IC50 [7] was > 100 µM.
For `NC(=O)c1c(O)cc(O)c2c1oc1ccc(C(F)(F)F)cc12` [Compound 47, 1,3-Dihydroxy-8-(trifluoromethyl)dibenzo[b,d]furan-4-carboxamide], the IC50 [1, 12] was > 1 µM and 2.35 µM, the IC50 [1, 13] was 2.35 µM and the IC50 [4] was > 100 µM. For the same compound, the IC50 [5] was > 100 µM, the melting point was 347 to 348 °C and the “IC50 MV4-11” value ([6]; 48 h) was “inactive”. The IC50 [6] was > 100 µM.
For `CN1CCC(CNc2ccc3ncc(-c4cccc(OC(F)(F)F)c4)n3n2)CC1` [SGI-1776, reference compound], the IC50 [4] was 3.7 ± 1.5 µM, the IC50 [5] was 3.5 ± 0.6 µM and the IC50 [6] was 0.03 ± 0.003 µM.
